Experimental data as given in ChEMBL document CHEMBL4507259 (2021).

Assays:
[1] = target: Ribosomal protein S6 kinase alpha-4 (Homo sapiens) (UniProt O75676); details: Compound concentration 1000.0 nM
[2] = target: Serine/threonine-protein kinase PknB (Mycobacterium tuberculosis) (UniProt P9WI81); details: Compound concentration 1000.0 nM
[3] = target: Serine/threonine-protein kinase TNNI3K (Homo sapiens) (UniProt Q59H18); details: Compound concentration 1000.0 nM
[4] = target: 5-hydroxytryptamine receptor 2A (Homo sapiens) (UniProt P28223); assay: 5-HT2A (h) CEREP ligand profiling; details: filed as antagonist, Compound concentration 10.0 uM
[5] = target: Serine/threonine-protein kinase 26 (Homo sapiens) (UniProt Q9P289); details: Compound concentration 1000.0 nM
[6] = target: Myosin light chain kinase family member 4 (Homo sapiens) (UniProt Q86YV6); details: Compound concentration 1000.0 nM
[7] = target: Histamine H3 receptor (Homo sapiens) (UniProt Q9Y5N1); details: Compound concentration 10.0 uM
[8] = target: 5'-AMP-activated protein kinase catalytic subunit alpha-1 (Homo sapiens) (UniProt Q13131); details: Compound concentration 1000.0 nM
[9] = target: Phosphatidylinositol 3-kinase C2 domain-containing subunit gamma (Homo sapiens) (UniProt O75747); details: Compound concentration 1000.0 nM
[10] = target: Protein kinase C theta type (Homo sapiens) (UniProt Q04759); details: Compound concentration 1000.0 nM
[11] = target: MAP kinase-activated protein kinase 2 (Homo sapiens) (UniProt P49137); details: Compound concentration 1000.0 nM
[12] = target: Serine/threonine-protein kinase 36 (Homo sapiens) (UniProt Q9NRP7); details: Compound concentration 1000.0 nM
[13] = species: Rattus norvegicus; details: Compound concentration 10.0 uM
[14] = target: Mitogen-activated protein kinase kinase kinase 10 (Homo sapiens) (UniProt Q02779); details: Compound concentration 1000.0 nM
[15] = target: Serine/threonine-protein kinase pim-3 (Homo sapiens) (UniProt Q86V86); details: Compound concentration 1000.0 nM
[16] = target: Casein kinase I isoform alpha (Homo sapiens) (UniProt P48729); details: Compound concentration 1000.0 nM
[17] = target: Histamine H4 receptor (Homo sapiens) (UniProt Q9H3N8); details: Compound concentration 10.0 uM
[18] = target: Serine/threonine-protein kinase SIK3 (Homo sapiens) (UniProt Q9Y2K2); details: Compound concentration 1000.0 nM
[19] = target: Calcium-activated potassium channel (Homo sapiens) (UniProt Q92952+Q9UGI6+Q12791+O15554+Q9H2S1+A8MYU2); assay: SKCa channel CEREP ligand profiling; assay type: protein assay; details: filed as antagonist; Compound concentration 10.0 uM
[20] = target: Mitogen-activated protein kinase kinase kinase 11 (Homo sapiens) (UniProt Q16584); details: Compound concentration 1000.0 nM
[21] = target: Serine/threonine-protein kinase MRCK gamma (Homo sapiens) (UniProt Q6DT37); details: Compound concentration 1000.0 nM
[22] = test system: Receptor-type tyrosine-protein kinase FLT3 (Homo sapiens), P36888 [D835Y]; details: Compound concentration 1000.0 nM
[23] = target: Calcium-dependent protein kinase 1 (Plasmodium falciparum) (UniProt P62344); details: Compound concentration 1000.0 nM
[24] = target: 5'-AMP-activated protein kinase catalytic subunit alpha-2 (Homo sapiens) (UniProt P54646); details: Compound concentration 1000.0 nM
[25] = target: Tyrosine-protein kinase Fyn (Homo sapiens) (UniProt P06241); details: Compound concentration 1000.0 nM
[26] = target: Serine/threonine-protein kinase D2 (Homo sapiens) (UniProt Q9BZL6); details: Compound concentration 1000.0 nM
[27] = target: Proto-oncogene tyrosine-protein kinase Src (Homo sapiens) (UniProt P12931); details: Compound concentration 1000.0 nM
[28] = target: Sodium-dependent dopamine transporter (Homo sapiens, UniProt Q01959); assay: dopamine transporter (h) CEREP ligand profiling; details: filed as antagonist, Compound concentration 10.0 uM
[29] = target: Serine/threonine-protein kinase LATS2 (Homo sapiens) (UniProt Q9NRM7); details: Compound concentration 1000.0 nM
[30] = target: Mitogen-activated protein kinase kinase kinase kinase 2 (Homo sapiens) (UniProt Q12851); details: Compound concentration 1000.0 nM
[31] = target: Vascular endothelial growth factor receptor 3 (Homo sapiens) (UniProt P35916); details: Compound concentration 1000.0 nM
[32] = target: Dual specificity mitogen-activated protein kinase kinase 7 (Homo sapiens) (UniProt O14733); details: Compound concentration 1000.0 nM
[33] = target: Mitogen-activated protein kinase kinase kinase 20 (Homo sapiens) (UniProt Q9NYL2); details: Compound concentration 1000.0 nM
[34] = target: D(2) dopamine receptor (Homo sapiens) (UniProt P14416); assay: D2S (h) CEREP ligand profiling; details: filed as antagonist, Compound concentration 10.0 uM
[35] = target: Calcium/calmodulin-dependent protein kinase type IV (Homo sapiens) (UniProt Q16566); details: Compound concentration 1000.0 nM
[36] = target: Cyclin-dependent kinase 16 (Homo sapiens) (UniProt Q00536); details: Compound concentration 1000.0 nM
[37] = target: Serine/threonine-protein kinase NIM1 (Homo sapiens) (UniProt Q8IY84); details: Compound concentration 1000.0 nM
[38] = GPCRScan assay: inhibition of GABA/PBR; set-up: species or system Rattus norvegicus; radioligand conc. used [nm] 0.3 – 2.0, parental cells brain tissue
[39] = target: Dual specificity mitogen-activated protein kinase kinase 2 (Homo sapiens) (UniProt P36507); details: Compound concentration 1000.0 nM
[40] = target: Calcium/calmodulin-dependent protein kinase kinase 2 (Homo sapiens) (UniProt Q96RR4); details: Compound concentration 1000.0 nM
[41] = target: Tyrosine-protein kinase ABL1 (Homo sapiens) (UniProt P00519); details: Compound concentration 1000.0 nM
[42] = target: Interleukin-1 receptor-associated kinase 1 (Homo sapiens) (UniProt P51617); details: Compound concentration 1000.0 nM
[43] = target: Bone morphogenetic protein receptor type-1A (Homo sapiens) (UniProt P36894); details: Compound concentration 1000.0 nM
[44] = target: Sodium/potassium-transporting ATPase (Homo sapiens) (UniProt P05023+P14415+P05026+P50993+P54709+P13637+Q13733+P54710); assay: ATPase (Na+/K+) CEREP ligand profiling; assay type: protein-complex assay; details: Compound concentration 10.0 uM

Chain of Vascular endothelial growth factor receptor 3 (Homo sapiens) (P35916 whole entry): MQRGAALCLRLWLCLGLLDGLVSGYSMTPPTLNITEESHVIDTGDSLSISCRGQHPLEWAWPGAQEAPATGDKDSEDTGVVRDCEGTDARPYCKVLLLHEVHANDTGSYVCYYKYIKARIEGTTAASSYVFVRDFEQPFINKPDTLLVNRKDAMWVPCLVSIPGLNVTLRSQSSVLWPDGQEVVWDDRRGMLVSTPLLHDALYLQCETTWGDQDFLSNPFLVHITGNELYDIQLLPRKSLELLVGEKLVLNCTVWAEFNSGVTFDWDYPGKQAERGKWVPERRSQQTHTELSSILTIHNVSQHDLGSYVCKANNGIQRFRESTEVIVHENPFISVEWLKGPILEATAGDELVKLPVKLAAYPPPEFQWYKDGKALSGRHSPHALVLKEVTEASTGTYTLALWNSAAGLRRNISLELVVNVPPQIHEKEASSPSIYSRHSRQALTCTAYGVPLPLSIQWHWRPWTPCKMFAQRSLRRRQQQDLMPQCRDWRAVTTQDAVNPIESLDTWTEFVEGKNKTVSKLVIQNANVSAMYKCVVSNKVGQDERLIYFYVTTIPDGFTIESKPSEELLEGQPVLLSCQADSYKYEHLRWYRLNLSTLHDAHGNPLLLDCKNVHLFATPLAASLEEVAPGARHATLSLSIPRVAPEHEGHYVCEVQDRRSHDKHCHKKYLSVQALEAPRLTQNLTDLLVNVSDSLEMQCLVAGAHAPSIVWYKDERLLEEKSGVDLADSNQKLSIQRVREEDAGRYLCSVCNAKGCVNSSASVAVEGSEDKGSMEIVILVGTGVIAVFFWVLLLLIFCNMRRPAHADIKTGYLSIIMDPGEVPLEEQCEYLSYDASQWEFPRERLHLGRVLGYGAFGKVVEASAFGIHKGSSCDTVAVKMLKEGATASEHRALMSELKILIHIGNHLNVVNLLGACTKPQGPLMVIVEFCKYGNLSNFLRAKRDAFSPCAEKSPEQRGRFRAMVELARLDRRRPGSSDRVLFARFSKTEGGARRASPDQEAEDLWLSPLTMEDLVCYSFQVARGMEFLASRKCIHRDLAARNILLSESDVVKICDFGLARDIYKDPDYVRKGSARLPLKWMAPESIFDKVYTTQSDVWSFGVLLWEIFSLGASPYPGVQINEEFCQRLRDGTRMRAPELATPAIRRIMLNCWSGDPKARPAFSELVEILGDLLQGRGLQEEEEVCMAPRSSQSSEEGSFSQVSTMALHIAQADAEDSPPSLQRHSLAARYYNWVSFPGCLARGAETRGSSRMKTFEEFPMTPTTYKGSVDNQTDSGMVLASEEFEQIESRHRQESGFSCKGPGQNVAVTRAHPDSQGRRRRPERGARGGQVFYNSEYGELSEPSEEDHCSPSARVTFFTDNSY
Chain of Dual specificity mitogen-activated protein kinase kinase 2 (Homo sapiens) (P36507 whole entry): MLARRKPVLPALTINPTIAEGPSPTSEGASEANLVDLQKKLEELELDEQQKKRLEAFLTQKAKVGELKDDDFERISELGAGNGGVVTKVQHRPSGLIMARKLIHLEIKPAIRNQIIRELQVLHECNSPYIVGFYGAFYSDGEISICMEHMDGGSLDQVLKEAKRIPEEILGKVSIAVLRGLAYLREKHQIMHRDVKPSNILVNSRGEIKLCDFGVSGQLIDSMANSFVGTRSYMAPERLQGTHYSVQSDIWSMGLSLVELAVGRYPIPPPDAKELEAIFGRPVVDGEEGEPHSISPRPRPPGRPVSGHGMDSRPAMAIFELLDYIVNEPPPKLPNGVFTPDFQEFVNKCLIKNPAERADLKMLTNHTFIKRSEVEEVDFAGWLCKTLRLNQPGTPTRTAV
Chain of Serine/threonine-protein kinase MRCK gamma (Homo sapiens) (Q6DT37 whole entry): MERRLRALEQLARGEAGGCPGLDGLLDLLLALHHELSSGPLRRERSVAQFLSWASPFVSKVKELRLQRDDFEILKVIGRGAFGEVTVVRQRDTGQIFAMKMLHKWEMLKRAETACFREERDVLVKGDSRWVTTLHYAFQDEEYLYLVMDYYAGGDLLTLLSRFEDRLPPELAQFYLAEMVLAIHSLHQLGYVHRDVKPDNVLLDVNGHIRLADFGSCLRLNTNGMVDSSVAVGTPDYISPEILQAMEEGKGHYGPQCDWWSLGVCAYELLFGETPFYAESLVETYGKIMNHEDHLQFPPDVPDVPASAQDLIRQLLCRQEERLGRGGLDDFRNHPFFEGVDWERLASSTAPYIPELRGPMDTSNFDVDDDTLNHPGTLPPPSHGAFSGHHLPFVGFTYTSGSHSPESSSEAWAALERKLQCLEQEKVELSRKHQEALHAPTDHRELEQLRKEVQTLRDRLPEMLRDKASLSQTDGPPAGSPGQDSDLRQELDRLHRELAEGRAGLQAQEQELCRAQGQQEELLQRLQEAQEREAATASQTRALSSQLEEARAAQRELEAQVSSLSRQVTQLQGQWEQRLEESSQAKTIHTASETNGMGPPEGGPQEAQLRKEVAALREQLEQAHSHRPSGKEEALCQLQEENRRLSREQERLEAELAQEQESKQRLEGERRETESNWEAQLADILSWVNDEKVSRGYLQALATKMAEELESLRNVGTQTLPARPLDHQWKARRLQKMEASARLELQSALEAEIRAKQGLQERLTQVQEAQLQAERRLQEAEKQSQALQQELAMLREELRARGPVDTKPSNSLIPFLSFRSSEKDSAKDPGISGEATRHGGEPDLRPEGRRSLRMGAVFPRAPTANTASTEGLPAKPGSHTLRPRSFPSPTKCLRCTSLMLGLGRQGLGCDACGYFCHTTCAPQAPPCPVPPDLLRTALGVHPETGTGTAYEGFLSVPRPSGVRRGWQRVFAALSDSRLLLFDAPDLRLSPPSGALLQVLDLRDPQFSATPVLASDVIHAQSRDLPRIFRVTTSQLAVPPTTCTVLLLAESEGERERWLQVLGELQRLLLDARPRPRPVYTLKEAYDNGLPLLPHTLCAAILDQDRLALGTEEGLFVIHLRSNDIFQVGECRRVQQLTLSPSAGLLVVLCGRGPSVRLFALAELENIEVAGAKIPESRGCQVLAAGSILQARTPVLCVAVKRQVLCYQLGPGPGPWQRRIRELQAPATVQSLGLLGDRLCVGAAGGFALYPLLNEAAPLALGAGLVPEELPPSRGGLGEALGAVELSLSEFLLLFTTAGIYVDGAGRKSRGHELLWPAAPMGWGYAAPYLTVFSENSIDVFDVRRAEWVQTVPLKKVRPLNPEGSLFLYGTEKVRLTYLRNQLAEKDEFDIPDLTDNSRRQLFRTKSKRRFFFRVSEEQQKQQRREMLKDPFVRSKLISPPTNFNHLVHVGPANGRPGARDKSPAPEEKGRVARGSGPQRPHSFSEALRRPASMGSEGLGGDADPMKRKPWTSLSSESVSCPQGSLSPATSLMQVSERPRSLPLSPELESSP
Chain of Tyrosine-protein kinase ABL1 (Homo sapiens) (P00519 whole entry): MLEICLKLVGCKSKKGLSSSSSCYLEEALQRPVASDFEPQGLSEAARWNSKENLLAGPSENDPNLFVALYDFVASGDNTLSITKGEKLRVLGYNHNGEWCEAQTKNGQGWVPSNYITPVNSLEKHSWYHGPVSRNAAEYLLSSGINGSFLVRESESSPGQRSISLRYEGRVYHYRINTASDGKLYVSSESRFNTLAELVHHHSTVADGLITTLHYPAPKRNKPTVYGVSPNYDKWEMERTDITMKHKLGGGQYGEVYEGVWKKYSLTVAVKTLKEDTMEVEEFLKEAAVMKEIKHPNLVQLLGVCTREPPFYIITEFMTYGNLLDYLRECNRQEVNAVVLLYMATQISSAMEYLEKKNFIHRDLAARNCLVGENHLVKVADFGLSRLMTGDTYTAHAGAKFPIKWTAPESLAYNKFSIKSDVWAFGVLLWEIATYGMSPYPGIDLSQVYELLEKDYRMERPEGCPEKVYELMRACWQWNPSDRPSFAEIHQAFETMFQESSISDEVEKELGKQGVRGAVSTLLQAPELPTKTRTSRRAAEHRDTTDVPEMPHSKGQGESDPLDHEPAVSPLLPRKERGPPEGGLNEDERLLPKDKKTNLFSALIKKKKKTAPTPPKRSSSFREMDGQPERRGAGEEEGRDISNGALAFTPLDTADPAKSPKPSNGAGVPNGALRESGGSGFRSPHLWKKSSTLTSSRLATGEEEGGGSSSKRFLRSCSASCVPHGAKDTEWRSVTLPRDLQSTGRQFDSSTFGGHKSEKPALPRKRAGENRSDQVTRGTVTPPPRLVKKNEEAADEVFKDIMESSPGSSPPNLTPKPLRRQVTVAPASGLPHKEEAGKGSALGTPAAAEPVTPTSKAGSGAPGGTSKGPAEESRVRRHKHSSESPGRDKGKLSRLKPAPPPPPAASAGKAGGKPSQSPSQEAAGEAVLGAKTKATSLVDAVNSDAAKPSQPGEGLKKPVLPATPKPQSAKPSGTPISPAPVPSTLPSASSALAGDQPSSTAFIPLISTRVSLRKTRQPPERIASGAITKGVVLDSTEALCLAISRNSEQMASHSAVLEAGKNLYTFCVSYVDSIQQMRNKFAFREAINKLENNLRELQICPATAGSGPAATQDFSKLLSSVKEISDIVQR
Chain of Cyclin-dependent kinase 16 (Homo sapiens) (Q00536 whole entry): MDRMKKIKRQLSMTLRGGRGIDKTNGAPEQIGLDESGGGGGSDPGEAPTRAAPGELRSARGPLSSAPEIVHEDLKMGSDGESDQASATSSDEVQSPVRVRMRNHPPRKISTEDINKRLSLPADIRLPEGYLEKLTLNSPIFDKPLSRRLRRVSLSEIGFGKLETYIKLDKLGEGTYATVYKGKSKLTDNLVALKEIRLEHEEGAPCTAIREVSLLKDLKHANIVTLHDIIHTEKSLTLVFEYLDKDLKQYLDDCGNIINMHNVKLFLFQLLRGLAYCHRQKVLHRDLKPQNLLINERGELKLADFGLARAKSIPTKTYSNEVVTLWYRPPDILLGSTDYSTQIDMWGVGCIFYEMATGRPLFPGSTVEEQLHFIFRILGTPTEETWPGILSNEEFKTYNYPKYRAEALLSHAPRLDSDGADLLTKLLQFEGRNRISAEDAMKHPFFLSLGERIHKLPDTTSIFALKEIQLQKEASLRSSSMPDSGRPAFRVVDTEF

Work on `CNC(=O)Nc1ccc2c(c1)CC[C@@]21OC(=O)N(CC(=O)N(Cc2ccc(F)cc2)[C@@H](C)C(F)(F)F)C1=O` [A-485] yielded a residual activity [1] of 100%, a residual activity [2] of 83% and a residual activity [3] of 97%. The inhibition [4] was 14%, the residual activity [5] was 90% and the residual activity [6] was 70%. For the same molecule, the inhibition [7] was 0.39%, the residual activity [8] was 100% and the residual activity [9] was 75%. For the same molecule, the residual activity [10] was 71%, the residual activity [11] was 87% and the residual activity [12] was 77%. For the same molecule, the inhibition [13] was 60%, the residual activity [14] was 57% and the residual activity [15] was 97%. It also gave a residual activity [16] of 93%, an inhibition [17] of 10.1% and a residual activity [18] of 94%. For the same molecule, the inhibition [19] was 2%, the residual activity [20] was 73% and the residual activity [21] was 88%. It also gave a residual activity [22] of 100%, a residual activity [23] of 83% and a residual activity [24] of 99%. For the same molecule, the residual activity [25] was 100%, the residual activity [26] was 100% and the residual activity [27] was 91%. It also gave an inhibition [28] of 94%, a residual activity [29] of 47% and a residual activity [30] of 76%. For the same molecule, the residual activity [31] was 89%, the residual activity [32] was 97% and the residual activity [33] was 82%. The inhibition [34] was 13%, the residual activity [35] was 75% and the residual activity [36] was 75%. For the same molecule, the residual activity [37] was 71%, the Ki [38] was 1110 nM and the pKi [38] was 5.96. For the same molecule, the residual activity [39] was 96%, the residual activity [40] was 76% and the residual activity [41] was 72%. It also gave a residual activity [42] of 71%, a residual activity [43] of 91% and an inhibition [44] of -1%.

Molecule `CNC(=O)Nc1ccc2c(c1)[C@@]1(CC2)OC(=O)N(CC(=O)N(Cc2ccc(F)cc2)[C@@H](C)C(F)(F)F)C1=O` [A-486] has a residual activity [1] of 100%, a residual activity [2] of 84% and a residual activity [3] of 98%. For the same molecule, the inhibition [4] was 8%, the residual activity [5] was 100% and the residual activity [6] was 100%. It also gave an inhibition [7] of 13.2%, a residual activity [8] of 91% and a residual activity [9] of 97%. The residual activity [10] was 89%, the residual activity [11] was 100% and the residual activity [12] was 100%. For the same molecule, the inhibition [13] was 50.6%, the residual activity [14] was 73% and the residual activity [15] was 89%. The residual activity [16] was 83%, the inhibition [17] was 5.16% and the residual activity [18] was 100%. It also gave an inhibition [19] of -7%, a residual activity [20] of 91% and a residual activity [21] of 88%. For the same molecule, the residual activity [22] was 96%, the residual activity [23] was 93% and the residual activity [24] was 57%. It also gave a residual activity [25] of 79%, a residual activity [26] of 100% and a residual activity [27] of 90%. The inhibition [28] was 27%, the residual activity [29] was 68% and the residual activity [30] was 92%. It also gave a residual activity [31] of 100%, a residual activity [32] of 85% and a residual activity [33] of 93%. The inhibition [34] was -3%, the residual activity [35] was 85% and the residual activity [36] was 83%. For the same molecule, the residual activity [37] was 76%, the Ki [38] was 2580 nM and the pKi [38] was 5.6. For the same molecule, the residual activity [39] was 99%, the residual activity [40] was 99% and the residual activity [41] was 84%. It also gave a residual activity [42] of 88%, a residual activity [43] of 100% and an inhibition [44] of -1%.
